{"source": "patent US5266594A", "about": "“Inhibitors of nitric oxide synthase and use thereof to prevent glutamate neurotoxicity” (priority 1992, dated 1993)", "key": {"[1]": {"molecular_target": "brain NOS (cerebellar NOS) (Rattus norvegicus, UniProt P29476)", "sequence (P29476 whole entry)": "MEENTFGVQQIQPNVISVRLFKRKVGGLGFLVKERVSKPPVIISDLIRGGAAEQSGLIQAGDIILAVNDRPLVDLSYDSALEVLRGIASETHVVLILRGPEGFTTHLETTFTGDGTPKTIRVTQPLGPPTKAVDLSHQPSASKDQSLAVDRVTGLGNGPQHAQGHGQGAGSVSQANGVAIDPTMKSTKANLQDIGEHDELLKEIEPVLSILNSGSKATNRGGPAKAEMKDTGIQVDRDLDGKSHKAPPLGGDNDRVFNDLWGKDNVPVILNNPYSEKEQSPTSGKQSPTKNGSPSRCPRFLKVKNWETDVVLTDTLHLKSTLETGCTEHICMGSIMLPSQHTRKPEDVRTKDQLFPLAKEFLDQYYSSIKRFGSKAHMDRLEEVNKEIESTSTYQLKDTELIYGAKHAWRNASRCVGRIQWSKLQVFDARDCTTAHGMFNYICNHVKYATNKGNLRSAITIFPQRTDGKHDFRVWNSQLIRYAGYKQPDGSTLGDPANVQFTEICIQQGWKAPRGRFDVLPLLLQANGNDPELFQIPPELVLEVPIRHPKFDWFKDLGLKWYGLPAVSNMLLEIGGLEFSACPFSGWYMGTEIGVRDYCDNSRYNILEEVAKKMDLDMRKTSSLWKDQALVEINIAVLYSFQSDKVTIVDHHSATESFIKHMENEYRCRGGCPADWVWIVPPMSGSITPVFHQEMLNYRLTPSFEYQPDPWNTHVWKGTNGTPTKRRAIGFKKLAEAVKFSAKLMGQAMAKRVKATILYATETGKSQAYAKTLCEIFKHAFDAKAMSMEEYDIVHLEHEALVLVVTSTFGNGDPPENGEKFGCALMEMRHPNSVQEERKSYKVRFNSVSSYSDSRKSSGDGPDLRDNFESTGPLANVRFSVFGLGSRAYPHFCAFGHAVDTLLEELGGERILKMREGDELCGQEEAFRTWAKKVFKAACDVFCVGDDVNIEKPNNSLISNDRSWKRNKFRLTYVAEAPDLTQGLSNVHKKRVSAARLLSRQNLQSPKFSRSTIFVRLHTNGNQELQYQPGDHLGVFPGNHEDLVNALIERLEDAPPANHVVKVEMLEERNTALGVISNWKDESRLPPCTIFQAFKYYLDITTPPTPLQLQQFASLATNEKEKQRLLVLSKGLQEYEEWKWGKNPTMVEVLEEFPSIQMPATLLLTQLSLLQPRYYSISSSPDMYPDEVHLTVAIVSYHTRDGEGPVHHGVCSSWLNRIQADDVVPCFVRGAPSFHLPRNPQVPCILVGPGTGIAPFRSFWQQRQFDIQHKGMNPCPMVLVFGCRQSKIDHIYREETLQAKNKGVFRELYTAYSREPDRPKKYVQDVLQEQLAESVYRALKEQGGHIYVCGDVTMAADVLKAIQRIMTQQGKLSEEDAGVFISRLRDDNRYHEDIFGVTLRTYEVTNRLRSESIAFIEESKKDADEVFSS", "test": "inhibition of NOS activity, conversion of [^3 H]arginine to [^3 H]citrulline, cerebellar homogenates/supernatants in vitro", "description": "(§1) Inhibitors of NOS are compounds which compete for the substrate binding site of NOS or other sites on the enzyme, and include both reversible and irreversible inhibitors. The present invention contemplates the use of any physiologically acceptable inhibitor which inhibits NOS activity. The effectiveness of a compound, and its relative potency as an NOS inhibitor, can be tested and routinely determined by measuring inhibition of NOS activity by monitoring the conversion of arginine to citrulline by NOS in, for example, cerebellar homogenates. A reduction in citrulline formation indicates inhibitory activity of the compound. The percent reduction in citrulline formation, compared to the amount of citrulline formed in the absence of the compound being tested, indicates the potency of the compound as an NOS inhibitor.\nRat cerebella were homogenized in 10 vols. (w/v) […] Tris (pH 7.4), 2 mM EDTA. Homogenates were centrifuged at 10,000×g for 15 minutes at 4° C. Supernatant preparations were used in the enzyme assays. Cerebellar tissue was dialyzed (Spectra/Por, 10,000 MWCO, EDTA-treated cellulose dialysis tubing) against 20 mM Tris (pH 7.4), 2 mM EDTA (300 ml×2) for 24 hours at 4° C.\nCerebellar homogenates were incubated with arginine derivatives for one hour at 4° C., and dialyzed overnight. Aliquots (25 μg protein) were assayed for NOS activity before and after dialysis.\n(§2) NOS activity was measured by monitoring the conversion of [^3 H]arginine to [^3 H]citrulline as described by Bredt and Snyder (Proc. Natl. Acad. Sci USA (1990) 87682-685). Briefly, enzyme assays contained 25 μl of soluble tissue, 50 μl of […] [^3 H]arginine and 1 mM NADPH, and 25 μl of 3 mM CaCl2. After a 15 minute incubation at room temperature, the assays were terminated with 3 ml of 20 mM Hepes (pH 5.5) with 2 mM EDTA, and were applied to 0.5 ml columns of Dowex AG50WX8 (Na^+ form). [^3 H]citrulline was quantified by liquid scintillation spectroscopy of the 3 ml flow-through.\n(§3) Accordingly, the effects of 2, 4 and 24 hours of preincubations of cerebellar supernatants (FIG. 2A) and activated macrophage homogenates (FIG. 2B) with NO2 Arg were examined. The preincubation was conducted at 4° C. since NOS is unstable at higher temperature for long periods of time. Enzymatic incubation was conducted for only 5 minutes to minimize any reaction of the inhibitor with the enzyme in the course of the incubation procedure.\nCerebellar supernatants were made as described in Example 1."}, "[2]": {"system": "macrophage NOS (activated macrophage homogenates)", "test": "inhibition of NOS activity in activated macrophage homogenates in vitro", "format": "biochemical", "description": "as §1, §2, §3\nMacrophages were activated as described by Tayeh and Marletta (J. Biol. Chem. (1989) 264:19654-19658) with 3.5 ng/ml LPS from E. coli and 5 units/ml recombinant murine γ-interferon for 24 hours at 37° C. Cells were homogenized in 20 mM Hepes (pH 7.4)."}, "[3]": {"system": "brain or macrophage enzyme (NOS)", "test": "NOS inhibition and brain/macrophage selectivity of arginine, nitroarginine and guanidinoalkanoic acid analogs", "format": "biochemical"}}}
{"smiles": "N=C(NCCC[C@H](N)C(=O)O)N[N+](=O)[O-]", "note": "[NO2 Arg, L-N^ω -nitroarginine]", "values": [{"measurement": "effect of preincubation on potency of inhibition", "setting": "[1]; 2 hour preincubation at 4° C., FIG. 2A", "value": "increases the potency of inhibition"}, {"measurement": "nature of inhibition of cerebellar NOS in vitro", "setting": "[1]; FIG. 1, before and after dialysis", "value": "irreversible inhibition"}, {"measurement": "relative potency as inhibitor of NOS activity", "setting": "[1]; cerebellar supernatant preparations, FIG. 1", "value": "more potent inhibitor of NOS activity than MeArg"}, {"measurement": "augmentation of potency by preincubation", "setting": "[1]; preincubation for 24 hours at 4° C.", "value": "about 15 times"}, {"measurement": "potency in inhibiting the macrophage enzyme compared to the cerebellar enzyme", "setting": "[2]; 24 hours of incubation", "value": "about 7%"}, {"measurement": "enhancement of potency after preincubation", "setting": "[2]; preincubation with the enzyme, 24 hours, FIG. 2B", "value": "only a minimal enhancement of potency"}, {"measurement": "potency as NOS inhibitor relative to cerebellar preparations", "setting": "[2]; supernatant preparations of activated macrophage cultures, FIG. 2B", "value": "less potent inhibitor of NOS than in cerebellar preparations"}, {"measurement": "inhibition potency among nitroarginine analogs", "setting": "[3]", "value": "most potent inhibitor"}]}
